Reference: PMC7419507, “In vitro Cas9-assisted editing of modular polyketide synthase genes to produce desired natural product derivatives” (Nature Communications, 2020)

System: Jurkat, SKOV-3 and MESO-1 cells
Assay: Cytotoxicity assay, statements for all tested cell lines together
Type: cell-based
Conditions: Jurkat, SKOV-3 and MESO-1 cells, 72 h
Method: Jurkat cells were cultured in RPMI1640 medium supplemented with 10% foetal bovine serum, penicillin (50 U/ml), streptomycin (50 μg/ml), and Glutamax. SKOV-3 cells were cultured in DMEM medium supplemented with 10% fetal bovine serum, penicillin (50 U/ml), and streptomycin (50 μg/ml). MESO-1 cells were cultured in RPMI1640 medium supplemented with 10% fetal bovine serum, penicillin (50 U/ml), and streptomycin (50 μg/ml). All cell lines were seeded in a 384-well plate at a density of 1000 cells/well in 20 μl of media and incubated at 37 °C in a humidified incubator with 5% CO2. After 4 h, 2-fold dilution samples resolved in DMSO were added to the cell culture at the concentration of 0.5% (0.1 μl) and incubated for 72 h. Cell viabilities were measured using a CellTiter-Glo luminescent cell viability assay and EnVision multilabel plate reader.

With `COc1cc([C@@H]2c3cc4c(cc3[C@@H](O[C@@H]3O[C@@H]5CO[C@@H](C)O[C@H]5[C@H](O)[C@H]3O)[C@H]3COC(=O)[C@H]23)OCO4)cc(OC)c1O` [etoposide, reference compound] the “Effect on cell viability, in words” value was “typical cytotoxic activities”.
